Test results as given in patent US10377770B2 (Novartis AG, priority 2015, dated 2019).

biological target: C-Raf FL (full length CRAF with Y340E and Y341E activating mutations, co-expressed with h14-3-3 zeta) (Homo sapiens (Human), UniProt P04049, Y340E/Y341E); test: In vitro Raf activity determination, AlphaScreen p-MEK readout, c-Raf (C-Raf FL); assay type: biochemical; conditions: c-Raf approximately 4 nM, ATP 1 μM, pre-incubation 60 minutes, reaction 1 hour
How it was run: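 Full-length C-Raf (~4 nM) pre-incubated 60 min at room temperature with compound and kinase-dead biotinylated MEK1 (~10 nM) in Tris pH 7.5, 15 mM MgCl2, BSA, DTT. Reaction started with 1 μM ATP and run 1 h at room temperature. Phospho-MEK detected by AlphaScreen with anti-p-MEK antibody.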

Sequence of C-Raf FL (full length CRAF with Y340E and Y341E activating mutations, co-expressed with h14-3-3 zeta) (P04049 whole entry Y340E/Y341E): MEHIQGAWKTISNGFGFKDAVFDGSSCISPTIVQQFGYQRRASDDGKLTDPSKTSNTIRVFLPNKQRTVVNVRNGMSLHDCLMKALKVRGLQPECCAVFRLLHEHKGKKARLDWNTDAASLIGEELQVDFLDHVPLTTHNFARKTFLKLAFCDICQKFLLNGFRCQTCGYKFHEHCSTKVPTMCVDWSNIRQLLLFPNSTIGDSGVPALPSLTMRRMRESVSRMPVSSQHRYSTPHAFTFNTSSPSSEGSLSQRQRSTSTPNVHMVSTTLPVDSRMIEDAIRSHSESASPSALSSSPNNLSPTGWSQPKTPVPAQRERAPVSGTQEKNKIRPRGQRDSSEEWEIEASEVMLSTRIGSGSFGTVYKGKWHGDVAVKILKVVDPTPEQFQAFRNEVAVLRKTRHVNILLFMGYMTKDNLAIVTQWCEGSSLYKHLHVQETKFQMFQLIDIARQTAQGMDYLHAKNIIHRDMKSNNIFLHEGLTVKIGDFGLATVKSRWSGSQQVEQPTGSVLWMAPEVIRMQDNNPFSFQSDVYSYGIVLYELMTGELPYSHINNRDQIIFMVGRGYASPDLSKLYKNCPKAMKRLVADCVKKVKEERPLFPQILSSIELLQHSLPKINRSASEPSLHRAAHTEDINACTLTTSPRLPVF
Sequence of C-Raf FL (full length CRAF with Y340E and Y341E activating mutations, co-expressed with h14-3-3 zeta) (P63104 whole entry partner): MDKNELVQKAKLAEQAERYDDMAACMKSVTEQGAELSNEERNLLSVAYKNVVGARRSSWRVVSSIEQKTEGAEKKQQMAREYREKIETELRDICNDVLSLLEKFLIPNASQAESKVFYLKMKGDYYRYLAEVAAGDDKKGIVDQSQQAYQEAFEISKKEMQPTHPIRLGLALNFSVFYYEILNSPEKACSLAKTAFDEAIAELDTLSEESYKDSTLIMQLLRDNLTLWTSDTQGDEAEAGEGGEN

Compound	IC50 [nM]
Cc1ccc(NC(=O)c2ccnc(C(C)(F)F)c2)cc1-c1cnc2c(c1)N1CCOC[C@H]1[C@@H](C(C)(C)O)C2 [Example 453, 2-(1,1-difluoroethyl)-N-(3-((4aR,5S)-5-(2-hydroxypropan-2-yl)-1,2,4,4a,5,6-hexahydro-[1,4]oxazino[4,3-a][1,5]naphthyridin-9-yl)-4-methylphenyl) isonicotinamide]	0.7
Cc1ccc(NC(=O)c2ccnc(C(F)(F)F)c2)cc1-c1cnc2c(c1)N1CCOC[C@@H]1[C@@H](C(C)(C)O)C2 [Example 454]	0.8
Cc1ncc(NC(=O)c2cccc(C(F)(F)F)c2)cc1-c1cnc2c(c1)N1CCOC[C@@H]1[C@@H](C(C)(C)O)C2 [Example 455, N-(5-((4aS,5S)-5-(2-hydroxypropan-2-yl)-1,2,4,4a,5,6-hexahydro-[1,4]oxazino[4,3-a][l,5]naphthyridin-9-yl)-6-methylpyridin-3-yl)-3-(trifluoro-methyl)benzamide]	1.3
Cc1ccc(NC(=O)c2ccnc(C(C)(F)F)c2)cc1-c1cnc2c(c1)N1CCOC[C@@H]1[C@@H](C(C)(C)O)C2 [Example 456, 2-(1,1-difluoroethyl)-N-(3-((4aS,5S)-5-(2-hydroxypropan-2-yl)-1,2,4,4a,5,6-hexahydro-[1,4]oxazino[4,3-a][1,5]naphthyridin-9-yl)-4-methylphenyl) isonicotinamide]	0.7
Cc1ccc(NC(=O)c2ccnc(C(F)(F)F)c2)cc1-c1cnc2c(c1)N1CCOC[C@H]1[C@H](C(C)(C)O)C2 [Example 457]	0.4
Cc1ncc(NC(=O)c2cccc(C(F)(F)F)c2)cc1-c1cnc2c(c1)N1CCOC[C@H]1[C@H](C(C)(C)O)C2 [Example 458, N-(5-((4aR,5R)-5-(2-hydroxypropan-2-yl)-1,2,4,4a,5,6-hexahydro-[1,4]oxazino[4,3-a][1,5]naphthyridin-9-yl)-6-methylpyridin-3-yl)-3-(trifluoro-methyl)benzamide]	0.7
Cc1ccc(NC(=O)c2ccnc(C(C)(F)F)c2)cc1-c1cnc2c(c1)N1CCOC[C@@H]1[C@@H](C(C)(C)O)C2 [Example 459, 2-(1,1-difluoroethyl)-N-(3-((4aS,5S)-5-(2-hydroxypropan-2-yl)-1,2,4,4a,5,6-hexahydro-[1,4]oxazino[4,3-a][1,5]naphthyridin-9-yl)-4-methylphenyl) isonicotinamide]	0.4
Cc1ncc(NC(=O)c2ccnc(C(C)(F)F)c2)cc1-c1ccc2c(c1)N1CCOC[C@H]1[C@](F)(CF)C2 [Example 467]	1.9
Cc1ncc(NC(=O)c2ccnc(C(C)(C)C)c2)cc1-c1ccc2c(c1)N1CCOC[C@H]1[C@](F)(CF)C2 [Example 468, 2-(tert-butyl)-N-(5-((4aS,5S)-5-fluoro-5-(fluoromethyl)-1,2,4,4a,5,6-hexahydro-[1,4]oxazino[4,3-a]quinolin-9-yl)-6-methylpyridin-3-yl)isonicotinamide]	8
Cc1ccc(NC(=O)c2cncc(C(F)(F)F)c2)cc1-c1ccc2c(c1)N1CCOC[C@H]1[C@](F)(CF)C2 [Example 469, N-(3-((4aS,5S)-5-fluoro-5-(fluoromethyl)-1,2,4,4a,5,6-hexahydro-[1,4]oxazino[4,3-a]quinolin-9-yl)-4-methylphenyl)-5-(trifluorometh-yl)nicotinamide]	1.8
Cc1ncc(NC(=O)c2cncc(C(F)(F)F)c2)cc1-c1ccc2c(c1)N1CCOC[C@H]1[C@](F)(CF)C2 [Example 470, N-(5-((4aS,5S)-5-fluoro-5-(fluoromethyl)-1,2,4,4a,5,6-hexahydro-[1,4]oxazino[4,3-a]quinolin-9-yl)-6-methylpyridin-3-yl)-5-(trifluorometh-yl)nicotinamide]	2.2
Cc1ncc(NC(=O)c2ccnc(C(F)(F)F)c2)cc1-c1ccc2c(c1)N1CCOC[C@H]1[C@](F)(CF)C2 [Example 471, N-(5-((4aS,5S)-5-fluoro-5-(fluoromethyl)-1,2,4,4a,5,6-hexahydro-[1,4]oxazino[4,3-a]quinolin-9-yl)-6-methylpyridin-3-yl)-2-(trifluoromethyl)iso-nictonamide]	1.2
